Data reported in PubChem BioAssay (NCI).
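Protocol summary: plate cells (96-well), add compound at 5 concentrations, incubate 48 h, interpolate endpoints linearly. Abbreviation: GI50, concentration required for 50% inhibition of growth. TGI: concentration producing complete growth inhibition.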

What was measured:
Assay in all cases: growth of human tumour cells (NCI), 48 h
786-0 renal = test system: 786-0 renal
A498 renal = test system: A498 renal
A549 NSCLC = test system: A549 NSCLC
ACHN renal = test system: ACHN renal
BT-549 breast = test system: BT-549 breast
CAKI-1 renal = test system: CAKI-1 renal
CCRF-CEM leukemia = test system: CCRF-CEM leukemia
COLO 205 colon = test system: COLO 205 colon
DU-145 prostate = test system: DU-145 prostate
EKVX NSCLC = test system: EKVX NSCLC
HCC-2998 colon = test system: HCC-2998 colon
HCT-15 colon = test system: HCT-15 colon
HL-60(TB) leukemia = test system: HL-60(TB) leukemia
HOP-62 NSCLC = test system: HOP-62 NSCLC
HOP-92 NSCLC = test system: HOP-92 NSCLC
HS 578T breast = test system: HS 578T breast
HT29 colon = test system: HT29 colon
IGROV1 ovarian = test system: IGROV1 ovarian
K-562 leukemia = test system: K-562 leukemia
KM12 colon = test system: KM12 colon
LOX IMVI melanoma = test system: LOX IMVI melanoma
M14 melanoma = test system: M14 melanoma
MALME-3M melanoma = test system: MALME-3M melanoma
MCF7 breast = test system: MCF7 breast
MDA-MB-231 breast = test system: MDA-MB-231 breast
MDA-MB-435 = test system: MDA-MB-435
MOLT-4 leukemia = test system: MOLT-4 leukemia
NCI-H226 lung = test system: NCI-H226 lung
NCI-H23 lung = test system: NCI-H23 lung
NCI-H460 lung = test system: NCI-H460 lung
NCI-H522 lung = test system: NCI-H522 lung
NCI/ADR-RES ovarian = test system: NCI/ADR-RES ovarian
OVCAR-4 ovarian = test system: OVCAR-4 ovarian
OVCAR-5 ovarian = test system: OVCAR-5 ovarian
PC-3 prostate = test system: PC-3 prostate
RPMI-8226 leukemia = test system: RPMI-8226 leukemia
RXF 393 renal = test system: RXF 393 renal
SF-268 CNS = test system: SF-268 CNS
SF-295 CNS = test system: SF-295 CNS
SF-539 CNS = test system: SF-539 CNS
SK-MEL-2 melanoma = test system: SK-MEL-2 melanoma
SK-MEL-28 melanoma = test system: SK-MEL-28 melanoma
SK-MEL-5 melanoma = test system: SK-MEL-5 melanoma
SK-OV-3 ovarian = test system: SK-OV-3 ovarian
SN12C renal = test system: SN12C renal
SNB-19 CNS = test system: SNB-19 CNS
SNB-75 CNS = test system: SNB-75 CNS
SR leukemia = test system: SR leukemia
SW-620 colon = test system: SW-620 colon
TK-10 renal = test system: TK-10 renal
U251 CNS = test system: U251 CNS
UACC-257 melanoma = test system: UACC-257 melanoma
UACC-62 melanoma = test system: UACC-62 melanoma
UO-31 renal = test system: UO-31 renal

Structure (SMILES): CC1(C)CC[C@]23CC[C@]4(C)[C@H](CC[C@@H]5[C@@]6(C)CCCN(CO)C(C)(C)[C@@H]6CC[C@]54C)[C@H]2[C@H]1OC3
- GI50 (786-0 renal): 1.84 µM
- TGI (786-0 renal): 3.4 µM
- GI50 (A498 renal): 12 µM
- TGI (A498 renal): 25.6 µM
- GI50 (A549 NSCLC): 2.76 µM
- TGI (A549 NSCLC): 8.98 µM
- GI50 (ACHN renal): 1.87 µM
- TGI (ACHN renal): 3.6 µM
- GI50 (BT-549 breast): 8.31 µM
- TGI (BT-549 breast): 26 µM
- GI50 (CAKI-1 renal): 1.54 µM
- TGI (CAKI-1 renal): 3.3 µM
- GI50 (CCRF-CEM leukemia): 3.49 µM
- TGI (CCRF-CEM leukemia): > 100 µM
- GI50 (COLO 205 colon): 1.7 µM
- TGI (COLO 205 colon): 3.35 µM
- GI50 (DU-145 prostate): 3 µM
- TGI (DU-145 prostate): 8.95 µM
- GI50 (EKVX NSCLC): 5.7 µM
- TGI (EKVX NSCLC): 21.3 µM
- GI50 (HCC-2998 colon): 1.76 µM
- TGI (HCC-2998 colon): 3.35 µM
- GI50 (HCT-15 colon): 1.75 µM
- TGI (HCT-15 colon): 3.71 µM
- GI50 (HL-60(TB) leukemia): 2.01 µM
- TGI (HL-60(TB) leukemia): 5.07 µM
- GI50 (HOP-62 NSCLC): 2.91 µM
- TGI (HOP-62 NSCLC): 12.4 µM
- GI50 (HOP-92 NSCLC): 1.68 µM
- TGI (HOP-92 NSCLC): 4.75 µM
- GI50 (HS 578T breast): 3.32 µM
- TGI (HS 578T breast): 17.1 µM
- GI50 (HT29 colon): 1.86 µM
- TGI (HT29 colon): 3.86 µM
- GI50 (IGROV1 ovarian): 1.91 µM
- TGI (IGROV1 ovarian): 4 µM
- GI50 (K-562 leukemia): 2.25 µM
- TGI (K-562 leukemia): > 100 µM
- GI50 (KM12 colon): 1.73 µM
- TGI (KM12 colon): 3.5 µM
- GI50 (LOX IMVI melanoma): 1.57 µM
- TGI (LOX IMVI melanoma): 2.93 µM
- GI50 (M14 melanoma): 1.8 µM
- TGI (M14 melanoma): 4.04 µM
- GI50 (MALME-3M melanoma): 2.64 µM
- TGI (MALME-3M melanoma): 8.69 µM
- GI50 (MCF7 breast): 2.2 µM
- TGI (MCF7 breast): 5.64 µM
- GI50 (MDA-MB-231 breast): 1.96 µM
- TGI (MDA-MB-231 breast): 4.5 µM
- GI50 (MDA-MB-435): 2.4 µM
- TGI (MDA-MB-435): 6.67 µM
- GI50 (MOLT-4 leukemia): 2.99 µM
- TGI (MOLT-4 leukemia): 10.2 µM
- GI50 (NCI-H226 lung): 2.62 µM
- TGI (NCI-H226 lung): 7.85 µM
- GI50 (NCI-H23 lung): 2.19 µM
- TGI (NCI-H23 lung): 5.75 µM
- GI50 (NCI-H460 lung): 1.88 µM
- TGI (NCI-H460 lung): 3.7 µM
- GI50 (NCI-H522 lung): 15.9 µM
- TGI (NCI-H522 lung): 31.7 µM
- GI50 (NCI/ADR-RES ovarian): 2.02 µM
- TGI (NCI/ADR-RES ovarian): 4.6 µM
- GI50 (OVCAR-4 ovarian): 3.42 µM
- TGI (OVCAR-4 ovarian): 13.4 µM
- GI50 (OVCAR-5 ovarian): 2.44 µM
- TGI (OVCAR-5 ovarian): 6.7 µM
- GI50 (PC-3 prostate): 2.91 µM
- TGI (PC-3 prostate): 13.9 µM
- GI50 (RPMI-8226 leukemia): 2.88 µM
- TGI (RPMI-8226 leukemia): > 100 µM
- GI50 (RXF 393 renal): 3.27 µM
- TGI (RXF 393 renal): 18 µM
- GI50 (SF-268 CNS): 6.61 µM
- TGI (SF-268 CNS): 22.8 µM
- GI50 (SF-295 CNS): 1.96 µM
- TGI (SF-295 CNS): 3.77 µM
- GI50 (SF-539 CNS): 2.15 µM
- TGI (SF-539 CNS): 4.95 µM
- GI50 (SK-MEL-2 melanoma): 2.5 µM
- TGI (SK-MEL-2 melanoma): 7.68 µM
- GI50 (SK-MEL-28 melanoma): 1.97 µM
- TGI (SK-MEL-28 melanoma): 3.78 µM
- GI50 (SK-MEL-5 melanoma): 16.1 µM
- TGI (SK-MEL-5 melanoma): 30.7 µM
- GI50 (SK-OV-3 ovarian): 13.9 µM
- TGI (SK-OV-3 ovarian): 27.7 µM
- GI50 (SN12C renal): 4.89 µM
- TGI (SN12C renal): 18.6 µM
- GI50 (SNB-19 CNS): 3.09 µM
- TGI (SNB-19 CNS): 12 µM
- GI50 (SNB-75 CNS): 5.02 µM
- TGI (SNB-75 CNS): 19.6 µM
- GI50 (SR leukemia): 1.87 µM
- TGI (SR leukemia): 13.1 µM
- GI50 (SW-620 colon): 1.68 µM
- TGI (SW-620 colon): 3.24 µM
- GI50 (TK-10 renal): 14 µM
- TGI (TK-10 renal): 28.7 µM
- GI50 (U251 CNS): 2.05 µM
- TGI (U251 CNS): 4.7 µM
- GI50 (UACC-257 melanoma): 10.6 µM
- TGI (UACC-257 melanoma): 24.6 µM
- GI50 (UACC-62 melanoma): 4.83 µM
- TGI (UACC-62 melanoma): 17.8 µM
- GI50 (UO-31 renal): 9.62 µM
- TGI (UO-31 renal): 23.6 µM
